This note sets out measurements from ChEMBL document CHEMBL1150550, “A novel condensed tropone-isoquinoline alkaloid, pareitropone, from Cissampelos pareira” (Bioorg Med Chem Lett, 1995).

Converted amounts (≈) assume the structure as drawn.

The test system of this experiment is P388. The experiment can be described thus: Cytotoxicity against cultured p-388 cells. Type of experiment: functional, cell-based. The settings on record: Mus musculus.
What is called IC50 is the concentration needed to halve the response being measured. Low values mean inhibition by little substance, high ones a need for much substance. For the molecule `COc1cc2ccnc3c2c(c1OC)-c1ccc(=O)ccc1-3` [PAREITROPONE], the IC50 was determined as 0.0008 µg/mL (≈ 0.00275 µM).
Regarding `COc1c(OC)c2c3c(nccc3c1OC)-c1cc(O)c(=O)ccc1-2` [GRANDIRUBRINE], the midpoint of inhibition, the IC50, lay at 0.18 µg/mL (≈ 0.534 µM).
In turn, `COc1c(OC)c2c3c(nccc3c1OC)-c1cc(OC)c(=O)ccc1-2` had an IC50 of 1.2 µg/mL (≈ 3.42 µM).
